Data published in patent publication US8044198B2, “Sirtuin modulating compounds” (Sirtris Pharmaceuticals, Inc., priority 2005, dated 2011).
Where two headings read alike, the source gives them in different places.

Target: T1, SIRT1 (Homo sapiens, UniProt Q96EB6)
T1 sequence (Q96EB6 1-747): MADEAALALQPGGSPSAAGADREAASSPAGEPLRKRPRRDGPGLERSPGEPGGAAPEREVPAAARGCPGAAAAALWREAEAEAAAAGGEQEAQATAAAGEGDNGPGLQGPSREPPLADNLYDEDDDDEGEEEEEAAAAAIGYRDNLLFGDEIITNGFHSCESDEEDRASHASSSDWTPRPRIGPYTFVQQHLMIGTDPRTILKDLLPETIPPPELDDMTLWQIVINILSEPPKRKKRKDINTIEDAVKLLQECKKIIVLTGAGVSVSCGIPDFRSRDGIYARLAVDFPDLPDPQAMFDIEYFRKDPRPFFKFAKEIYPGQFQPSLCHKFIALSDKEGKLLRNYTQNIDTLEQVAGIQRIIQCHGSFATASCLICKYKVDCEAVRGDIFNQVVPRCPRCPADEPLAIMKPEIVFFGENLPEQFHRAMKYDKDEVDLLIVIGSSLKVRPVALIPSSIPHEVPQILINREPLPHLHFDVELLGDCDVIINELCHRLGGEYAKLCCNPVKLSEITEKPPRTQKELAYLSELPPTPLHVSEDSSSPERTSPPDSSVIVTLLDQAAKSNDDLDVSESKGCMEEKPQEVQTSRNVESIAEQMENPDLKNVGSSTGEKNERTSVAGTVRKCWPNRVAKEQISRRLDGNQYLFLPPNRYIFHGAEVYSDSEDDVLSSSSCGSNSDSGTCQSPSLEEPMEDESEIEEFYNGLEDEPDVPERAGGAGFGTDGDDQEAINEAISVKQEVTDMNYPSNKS
Assay: SIRT1 mass spectrometry (MS) based deacetylation assay; on FOLD ACT. MS: test concentration or dose not given here
Format: biochemical
Details: for FOLD ACT. MS: fold activation as determined by MS; for IC50: Sirt1 Inhibitors

[1] = Sirt1 activators, mass spectrometry assay, read-out: ED50 MS ASSAY

| FOLD ACT. MS (Sirt1 activators) | EC50 [1] [µM] | IC50 (mass spectrometry assay) [µM] | Compound | EC50 [µM] |
| --- | --- | --- | --- | --- |
| A (A (Fold activation >250%)) | > 150 | – | COc1cc(NC(=N)Nc2cc(-c3nc4ncccc4o3)ccn2)cc(OC)c1OC [Compound 635] | – |
| B (B (Fold Activation <250%)) | > 150 | – | COc1cc(C(=O)Nc2cc(-c3nc4ncccc4o3)ccn2)ccc1CN1CCN(C)CC1 [Compound 637] | – |
| B (B (Fold Activation <250%)) | > 150 | – | COc1cc(C(=O)Nc2cc(-c3nc4ncccc4o3)ccn2)ccc1CN1CCNCC1 [Compound 638] | – |
| B (B (Fold Activation <250%)) | > 150 | – | CCn1ccc(C(=O)Nc2cc(-c3nc4ncccc4o3)ccn2)n1 [Compound 641] | – |
| B (B (Fold Activation <250%)) | > 150 | – | COc1cc(C(=O)Nc2cc(-c3nc4ncccc4o3)ccn2)ccc1CN1CCOCC1 [Compound 642] | – |
| B (B (Fold Activation <250%)) | 5 to 50 | – | COc1cc(C(=O)Nc2cc(-c3nc4ncccc4o3)ccn2)ccc1CN1CCN(Cc2ccccc2)CC1 [Compound 643] | – |
| A (A (Fold activation >250%)) | 5 to 50 | – | Cc1cnc(C(=O)Nc2ccccc2-c2cn3c(CN4CCNCC4)csc3n2)cn1 [Compound 644] | – |
| A (A (Fold activation >250%)) | < 5 | – | O=C(Nc1ccccc1-c1cn2c(CN3CCNCC3)csc2n1)c1cnc2ccccc2c1 [Compound 645] | – |
| A (A (Fold activation >250%)) | 5 to 50 | – | O=C(Nc1ccccc1-c1nc2cc(CN3CCNCC3)cnc2s1)c1ccc2ccccc2n1 [Compound 646] | – |
| A (A (Fold activation >250%)) | < 5 | – | CN(C)CCOCc1csc2nc(-c3ccccc3NC(=O)c3cnc4ccccc4n3)cn12 [Compound 647] | – |
| B (B (Fold Activation <250%)) | < 5 | – | O=C(Nc1ccccc1-c1cn2c(CO)csc2n1)c1cnc2ccccc2n1 [Compound 648] | – |
| A (A (Fold activation >250%)) | < 5 | – | CC(=O)N1CCN(Cc2csc3nc(-c4ccccc4NC(=O)c4cnc5ccccc5n4)cn23)CC1 [Compound 651] | – |
| – | – | 51 to 100 | O=S(=O)(Nc1cc(-c2nc3ncccc3o2)ccn1)c1ccc(Cl)cc1 [Compound 652] | – |
| – | – | 101 to 150 | COc1ccc(C)cc1S(=O)(=O)Nc1cc(-c2nc3ncccc3o2)ccn1 [Compound 653] | – |
| – | – | > 150 | O=S(=O)(Nc1cccc(-c2nc3ccncc3s2)c1)c1ccc(S(=O)(=O)c2ccccc2)s1 [Compound 654] | – |
| B (B (Fold Activation <250%)) | 5 to 50 | – | COc1ccc(NC(=S)Nc2cc(-c3nc4ncccc4o3)ccn2)cc1OC [Compound 660] | – |
| B (B (Fold Activation <250%)) | < 5 | – | COc1cc(NC(=S)Nc2cc(-c3nc4ncccc4o3)ccn2)cc(OC)c1 [Compound 661] | – |
| B (B (Fold Activation <250%)) | 5 to 50 | – | COc1cc(NC(=S)Nc2cc(-c3nc4ncccc4o3)ccn2)cc(OC)c1OC [Compound 663] | – |
| – | 5 to 50 | – | FC(F)(F)c1cccc(Cl)c1NC(=S)Nc1cc(-c2nc3ncccc3o2)ccn1 [Compound 667] | – |
| B (B (Fold Activation <250%)) | 5 to 50 | – | O=C(Nc1ccccc1-c1nc2ncccc2o1)c1ccc(Oc2ncccn2)cc1 [Compound 668] | – |
| A (A (Fold activation >250%)) | < 5 | – | O=C(Nc1ccccc1-c1cn2c(CNCC(O)CO)csc2n1)c1cnc2ccccc2n1 (centres unmarked) [Compound 676] | – |
| A (A (Fold activation >250%)) | < 5 | – | O=C1CN(Cc2csc3nc(-c4ccccc4NC(=O)c4cnc5ccccc5n4)cn23)CCN1 [Compound 677] | – |

| Compound | FOLD ACT. MS (Sirt1 activators) | EC50 [1] [µM] | IC50 (mass spectrometry assay) [µM] | EC50 [µM] |
| --- | --- | --- | --- | --- |
| CN1CCN(C(=O)Cc2csc3nc(-c4ccccc4NC(=O)c4cnc5ccccc5n4)cn23)CC1 [Compound 649] | A (A (Fold activation >250%)) | < 5 | – | – |
| COc1ccc(OC(=O)Nc2ccccc2-c2nc3ncccc3o2)cc1OC [Compound 670] | B (B (Fold Activation <250%)) | – | – | 5 to 50 |
